Data set [1] relates to HIV-1 IIIB strain. The data set can be described thus: Antiviral assay, HIV-1 replication in TZMbl cells (luciferase). Type of data set: cell-based. Conditions: for EC50: read-out: HIV-1 EC50 TZMbl Cells.
Method: Drug-mediated inhibition of virus-induced cytotoxicity was assayed in TZM-BL cells. […] Serial dilutions of drugs were added immediately after infection. Luciferase activity was measured as reported [67]. Two days after infection, the culture medium was removed from each well and 100 µl of Bright Glo reagent (Promega, Luis Obispo, CA) was added to the cells for measurement of luminescence using a Victor 2 luminometer (Perkin). […] Cell viability in CEM cells was quantified 5 days after infection with the MTT-dye reduction method.
Data set [2] can be described thus: Cytotoxicity in TZMbl cells. It is filed as cell-based. Conditions: human.
The target in data set [3] is T1, HIV-1 RT-associated RNase H activity (wt RT) (Human immunodeficiency virus type 1 group M subtype B, UniProt P04585).
T1 construct: RT is a heterodimeric (p66/p51) multifunctional enzyme; made in house; host or cells: Escherichia coli strain M15
The data set can be described thus: HIV-1 DNA polymerase-independent RNase H activity, wt RT. It is filed as biochemical. The note with it: RNase H IC50, wt RT. On the procedure: p6HRT-prot vector was kindly provided by Dr. Stuart Le Grice Laboratory. Heterodimeric RT was expressed essentially as described. Briefly, Escherichia coli strain M15 containing the p6HRT-prot vector were grown up to an OD600 of 0.7 and induced with isopropyl β-D-1-thiogalactopyranoside (IPTG) 1.7 mM for 4 h. Cell pellets were resuspended in Lysis buffer (50 mM sodium phosphate pH 7.8, 0.5 mg/mL lysozyme), incubated on ice for 20 min, added 0.3 M final NaCl, sonicated and centrifuged at 30,000× g for 1 h. The supernatant was loaded into a Ni^2+-sepharose column pre-equilibrated with loading buffer (50 mM sodium phosphate pH 7.8, 0.3 M NaCl, 10% glycerol, 10 mM imidazole) and washed thoroughly with wash buffer (50 mM sodium phosphate pH 6.0, 0.3 M NaCl, 10% glycerol, 80 mM imidazole). RT was gradient-eluted with elute buffer (wash buffer with 0.5 M imidazole). Fractions were collected, protein purity was checked by SDS-PAGE and found to be higher than 90%. RT containing fractions were pooled and diluted 1:1 with dilute buffer (50 mM sodium phosphate pH 7.0, 10% glycerol) then loaded into a Hi-trap Heparine HP GE (Healthcare Lifescience) pre-equilibrated with 10-column volume of loading buffer 2 (50 mM sodium phosphate pH 7.0, 10% glycerol, 150 mM NaCl). Column was then washed with loading buffer 2 and RT was gradient-eluted with elute buffer 2 (50 mM sodium phosphate pH 7.0, 10% glycerol, 150 mM NaCl). Fractions were collected, protein was dialyzed and stored in buffer containing 50 mM Tris HCl pH 7.0, 25 mM NaCl, 1 mM EDTA, 50% glycerol. Catalytic activities and protein concentration were determined. Enzyme-containing fractions were pooled and aliquots were stored at −80 °C.
The RT-associated RNase H activity of wt and mutated HIV RTs was measured as described, in 100 µL reaction volume containing 50 mM Tris HCl pH 7.8, 6 mM MgCl2, 1 mM dithiothreitol (DTT), 80 mM KCl, hybrid RNA/DNA (5’-[…]-3’-Fluorescein, 5’-[…]-3’-Dabcyl), and different amounts of enzymes according to a linear range of dose-response curve—20 ng of wt RT; 50 ng K103N RT; 100 ng V108A RT; 4 ng Y181C RT; 100 ng Q475A RT; 100 ng A502F RT. The reaction mixture was incubated for 1 h at 37 °C, the reaction was stopped by addition of EDTA and products were measured with a Victor 3 (Perkin) at 490/528 nm.

Data set [4] is described as follows: Cell viability in CEM cells (MTT). Type of data set: cell-based. The note with it: human, MTT, 5 days. On the procedure:
(§1) Drug-mediated inhibition of virus-induced cytotoxicity was assayed in TZM-BL cells. Triplicate wells of 96-well plates containing 1 × 10^4 TZMbl cells were infected with HIV-1 IIIB strain at a multiplicity of infection of 0.1. Serial dilutions of drugs were added immediately after infection. Luciferase activity was measured as reported. Two days after infection, the culture medium was removed from each well and 100 µl of Bright Glo reagent (Promega, Luis Obispo, CA) was added to the cells for measurement of luminescence using a Victor 2 luminometer (Perkin). The 50% effective concentration (EC50) was defined as the concentration that caused a 50% reduction of luciferase activity (relative light units) compared to virus control wells. Cell viability in CEM cells was quantified 5 days after infection with the MTT-dye reduction method.

In data set [5] the test system is CEM cells. The experiment in a line: Cell viability in CEM cells (MTT). Conditions: highest concentration tested. Type of data set: cell-based. As for the experimental part: as §1
Data set [6] has as its system TZMbl cells. The data set can be described thus: Cytotoxicity in TZMbl cells. Type of data set: cell-based. Conditions: highest concentration tested.
The mark [7] stands for this setting: Human immunodeficiency virus 1, TZM-bl, TZMbl cells, HIV-1 IIIB.

Where two headings read alike, the source gives them in different places. Bounds are passed on as bounds.

For the molecule `CSc1ccc(OC(=O)c2ccc(C(F)(F)F)nc2Nc2cc(Cl)ccc2C)cc1` [Compound 24, 4-(Methylthio)phenyl 2-((5-chloro-2-methylphenyl)amino)-6-(trifluoromethyl)nicotinate], the melting point (in general, the temperature of the solid-liquid transition) is 125 to 127 °C. The EC50 (as a rule, the concentration that produces a half-maximal response) in data set [1] (setting [7]) was above 10 µM. Besides, the CC50 (as a rule, the concentration that lowers cell viability or growth by half) in data set [2] was 50 µM. Moreover, the IC50 (commonly the concentration that gives 50% inhibition) in data set [3] is 9.6 ± 0.8 µM. This molecule returned a CC50 at 5 days in data set [4] above 50 µM. Also, the “percentage of cells viability in presence of the highest concentration of inhibitor tested, CEM cells” value (from here on “percentage … of inhibitor tested, CEM cells”) in data set [5] stood at 100%.

The molecule `COc1ccccc1CNC(=O)c1ccc(C(F)(F)F)nc1Nc1cc(Cl)ccc1C` [Compound 39, 2-((5-Chloro-2-methylphenyl)amino)-N-(2-methoxybenzyl)-6-(trifluoromethyl)nicotinamide] came in with a melting point of 148 to 150 °C. Also, the EC50 in data set [1] (setting [7]) is above 10 µM. The same molecule came in with a half-maximal cytotoxic concentration (CC50) in data set [2] of 14.8 ± 3.1 µM. In addition, inhibition in data set [3] was half-maximal at 18.7 ± 1.7 µM (IC50). For the same molecule, in data set [4], the CC50 at 5 days is above 12.5 µM. The “percentage … of inhibitor tested, CEM cells” value in data set [5] is listed as 55%.

For the molecule `Cc1ccc(Cl)cc1Nc1nc(C(F)(F)F)ccc1C(=O)NCc1ccc(C(F)(F)F)cc1` [Compound 42, 2-((5-Chloro-2-methylphenyl)amino)-6-(trifluoromethyl)-N-(4-(trifluoromethyl)benzyl)nicotinamide], the melting point lay in the range of 170 to 171 °C. Moreover, in data set [1] (setting [7]), the EC50 was above 3.6 µM. Further, in data set [2], the midpoint of cytotoxicity, the CC50, lay at 3.6 ± 1.2 µM. In data set [3], the midpoint of inhibition, the IC50, lay at 21.9 ± 0.2 µM. For the same molecule, in data set [4], the 50% cytotoxic concentration (CC50) at 5 days turned out to be 5 µM.

Molecule `Cc1ccc(Cl)cc1Nc1nc(C(F)(F)F)ccc1C(=O)Oc1cccc(O)c1` [Compound 17, 3-Hydroxyphenyl 2-((5-chloro-2-methylphenyl)amino)-6-(trifluoromethyl)nicotinate] yielded a melting point of 188 to 190 °C. In addition, the EC50 in data set [1] (setting [7]) was above 50 µM. The CC50 in data set [2] is above 50 µM. Further, in data set [6], the “percentage of cells viability in presence of the highest concentration of inhibitor tested, TZMbl” value (from here on “percentage … of inhibitor tested, TZMbl”) is reported as 62%. The molecule further displayed an IC50 in data set [3] of 26.6 ± 5.6 µM. Further, the CC50 at 5 days in data set [4] was above 50 µM. The “percentage … of inhibitor tested, CEM cells” value in data set [5] is 100%.

As to `Cc1ccc(Cl)cc1Nc1nc(C(F)(F)F)ccc1C(=O)NCc1ccc(Cl)cc1Cl` [Compound 45, 2-((5-Chloro-2-methylphenyl)amino)-N-(2,4-dichlorobenzyl)-6-(trifluoromethyl)nicotinamide], the melting point was 153 to 155 °C. Also, the EC50 in data set [1] (setting [7]) was above 10 µM. In data set [2], this molecule yielded a CC50 of 5 ± 0.6 µM. In addition, it took 19.3 ± 0.6 µM to reach half-maximal inhibition in data set [3] (IC50). The same molecule gave a CC50 at 5 days in data set [4] of 9.15 µM.

For `CCOC(=O)c1ccc(C(F)(F)F)nc1Nc1cc(Cl)ccc1C` [Compound 9], in data set [1] (setting [7]), the EC50 is above 10 µM. In addition, the CC50 in data set [2] was above 50 µM. For the same molecule, the “percentage … of inhibitor tested, TZMbl” value in data set [6] worked out at 75%. The molecule further came in with an IC50 in data set [3] of 24 ± 1.7 µM. The CC50 at 5 days in data set [4] was above 50 µM. Further, the “percentage … of inhibitor tested, CEM cells” value in data set [5] stood at 100%.

The molecule `Cc1ccc(Cl)cc1Nc1nc(C(F)(F)F)ccc1C(=O)N1CCN(c2ccc(Cl)c(Cl)c2)CC1` [Compound 52, (2-((5-Chloro-2-methylphenyl)amino)-6-(trifluoromethyl)pyridin-3-yl)(4-(3,4-dichlorophenyl)piperazin-1-yl)methanone] registered a melting point of 165 to 167 °C. In addition, the EC50 in data set [1] (setting [7]) amounted to 10 ± 1.2 µM. In addition, in data set [1] (TZMbl cells), the “SI (selectivity index)” value is listed as 1.6. The same molecule came in with a CC50 in data set [2] of 15.7 ± 5.1 µM. In addition, the midpoint of inhibition in data set [3], the IC50, lay at 7.5 ± 2 µM. Moreover, the CC50 at 5 days in data set [4] was above 50 µM. The “percentage … of inhibitor tested, CEM cells” value in data set [5] came to 76%.

For `COc1cc(CNC(=O)c2ccc(C(F)(F)F)nc2Nc2cc(Cl)ccc2C)ccc1O` [Compound 47, 2-((5-Chloro-2-methylphenyl)amino)-N-(4-hydroxy-3-methoxybenzyl)-6-(trifluoromethyl)nicotinamide], the melting point was in the range of 142 to 143 °C. Moreover, the EC50 in data set [1] (setting [7]) was above 10 µM. For the same molecule, the CC50 in data set [2] was 15 ± 3 µM. Moreover, in data set [3], the IC50 came out at 18.2 ± 1.7 µM. This molecule had a CC50 at 5 days in data set [4] of 17.4 µM.

Regarding `Cc1ccc(Cl)cc1Nc1nc(C(F)(F)F)ccc1C(=O)Oc1ccccc1O` [Compound 16, 2-Hydroxyphenyl 2-((5-chloro-2-methylphenyl)amino)-6-(trifluoromethyl)nicotinate], the melting point was 179 to 180 °C. Besides, in data set [1] (setting [7]), the EC50 was above 10 µM. The same molecule gave a CC50 in data set [2] of 12.2 ± 2.1 µM. This molecule came in with an IC50 in data set [3] of 16.2 ± 6.6 µM. The molecule also gave a CC50 at 5 days in data set [4] above 12.5 µM. Moreover, the “percentage … of inhibitor tested, CEM cells” value in data set [5] stood at 100%.

For `O=C1Nc2ccc(Cl)cc2[C@@](C#CC2CC2)(C(F)(F)F)O1` [EFV, efavirenz, reference compound], the EC50 in data set [1] (Human immunodeficiency virus 1, IIIB, TZM-bl) is 0.15 ± 0.02 µM. This molecule displayed a CC50 in data set [2] above 50 µM. Further, in data set [6], the “percentage … of inhibitor tested, TZMbl” value was 100%. The molecule also displayed a CC50 at 5 days in data set [4] above 50 µM. In data set [5], the “percentage … of inhibitor tested, CEM cells” value is recorded as 100%.

Regarding `Cc1ccc(Cl)cc1Nc1nc(C(F)(F)F)ccc1C(=O)Oc1ccc(Cl)cc1` [Compound 13], in data set [1] (setting [7]), the EC50 was 10 µM. Besides, the “SI (selectivity index)” value in data set [1] (TZMbl cells) came to 3.6. Further, in data set [2], the midpoint of cytotoxicity, the CC50, lay at 36 ± 1 µM. For the same molecule, in data set [3], the IC50 is 9.3 ± 2.5 µM. In data set [4], this molecule returned a CC50 at 5 days above 50 µM. Further, in data set [5], the “percentage … of inhibitor tested, CEM cells” value is 70%.

In the case of `Cc1ccc(Cl)cc1Nc1nc(C(F)(F)F)ccc1C(=O)NCc1ccc(Cl)c(Cl)c1` [Compound 46, 2-((5-Chloro-2-methylphenyl)amino)-N-(3,4-dichlorobenzyl)-6-(trifluoromethyl)nicotinamide], the melting point lay in the range of 179 to 180 °C. The EC50 in data set [1] (setting [7]) is above 6.3 µM. In data set [2], this molecule returned a CC50 of 6.3 ± 1.3 µM. This molecule also showed an IC50 in data set [3] of 25.6 ± 3.4 µM. This molecule came in with a CC50 at 5 days in data set [4] of 10.6 µM.

As for `Cc1ccc(Cl)cc1Nc1nc(C(F)(F)F)ccc1C(=O)NO` [Compound 25, 2-((5-Chloro-2-methylphenyl)amino)-N-hydroxy-6-(trifluoromethyl)nicotinamide], the melting point lay in the range of 154 to 155 °C. The EC50 in data set [1] (setting [7]) was above 10 µM. Moreover, the “HIV-1 EC50 TZMbl Cells” value in data set [1] (TZMbl cells, HIV-1 IIIB) is “inactive”. This molecule also returned a CC50 in data set [2] of 14 ± 2.8 µM. Also, the IC50 in data set [3] is 0.77 ± 0.06 µM. For the same molecule, the midpoint of cytotoxicity in data set [4], the CC50 at 5 days, lay at 35 µM.

Regarding `COc1ccc(OC(=O)c2ccc(C(F)(F)F)nc2Nc2cc(Cl)ccc2C)cc1` [Compound 23], the EC50 in data set [1] (setting [7]) is above 10 µM. The molecule further displayed a CC50 in data set [2] above 50 µM. For the same molecule, the “percentage … of inhibitor tested, TZMbl” value in data set [6] stood at 70%. In data set [3], the IC50 came to 11.6 ± 4.3 µM. Further, the CC50 at 5 days in data set [4] was above 50 µM. The “percentage … of inhibitor tested, CEM cells” value in data set [5] turned out to be 100%.

For the molecule `Cc1ccc(Cl)cc1Nc1nc(C(F)(F)F)ccc1C(=O)NCc1ccc(Cl)cc1` [Compound 40, N-(4-chlorobenzyl)-2-((5-chloro-2-methylphenyl)amino)-6-(trifluoromethyl)nicotinamide], the melting point fell in the range of 130 to 131 °C. Also, in data set [1] (setting [7]), the EC50 was above 4.7 µM. The molecule further displayed a CC50 in data set [2] of 4.7 ± 0.4 µM. Also, the concentration for half-maximal inhibition (IC50) in data set [3] came to 6.4 ± 0.5 µM. In data set [4], the midpoint of cytotoxicity, the CC50 at 5 days, lay at 7.75 µM.

For the origin of these results see publication PMC7144554, “2-(Arylamino)-6-(trifluoromethyl)nicotinic Acid Derivatives: New HIV-1 RT Dual Inhibitors Active on Viral Replication” (Molecules, 2020).
